Test results published in publication PMC8467814, “RSK1 vs. RSK2 Inhibitory Activity of the Marine β-Carboline Alkaloid Manzamine A: A Biochemical, Cervical Cancer Protein Expression, and Computational Study” (Marine Drugs, 2021).

Experiments:
[1] = target: T1, RSK1 (90 kDa ribosomal protein S6 kinase 1; MAPKAP-K1α) (Rattus norvegicus, UniProt Q63531); assay: radiometric […]-ATP kinase assay with KKLNRTLSVA peptide, P81 filter; also […] inhibition at […] in kinase panel; format: biochemical
T1 construct: gene Rps6ka1

[2] = target: T2, RSK2 (90 kDa ribosomal protein S6 kinase 2) (Homo sapiens, UniProt P51812); assay: radiometric […]-ATP kinase assay with KKLNRTLSVA peptide, P81 filter; format: biochemical
T2 construct: gene RPS6KA3
T2 sequence (P51812 whole entry): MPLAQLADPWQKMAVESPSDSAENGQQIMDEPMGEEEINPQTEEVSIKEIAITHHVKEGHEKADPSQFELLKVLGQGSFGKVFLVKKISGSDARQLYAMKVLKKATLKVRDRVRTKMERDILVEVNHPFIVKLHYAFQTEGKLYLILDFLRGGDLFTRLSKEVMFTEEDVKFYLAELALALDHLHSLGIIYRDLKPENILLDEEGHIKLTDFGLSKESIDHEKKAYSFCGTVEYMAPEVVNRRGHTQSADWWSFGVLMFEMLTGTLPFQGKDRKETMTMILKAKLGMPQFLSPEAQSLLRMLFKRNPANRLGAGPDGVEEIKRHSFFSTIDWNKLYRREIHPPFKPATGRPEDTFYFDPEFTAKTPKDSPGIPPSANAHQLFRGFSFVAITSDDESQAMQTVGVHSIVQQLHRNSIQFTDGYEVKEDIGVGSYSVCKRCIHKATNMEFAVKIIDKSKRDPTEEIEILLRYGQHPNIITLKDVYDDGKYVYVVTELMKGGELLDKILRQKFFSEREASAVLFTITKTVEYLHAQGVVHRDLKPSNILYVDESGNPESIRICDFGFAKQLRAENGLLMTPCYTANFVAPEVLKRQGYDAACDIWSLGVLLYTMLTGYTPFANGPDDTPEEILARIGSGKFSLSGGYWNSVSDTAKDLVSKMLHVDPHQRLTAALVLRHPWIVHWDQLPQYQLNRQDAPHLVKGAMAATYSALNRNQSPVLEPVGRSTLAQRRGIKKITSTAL

T1 sequence (Q63531 whole entry): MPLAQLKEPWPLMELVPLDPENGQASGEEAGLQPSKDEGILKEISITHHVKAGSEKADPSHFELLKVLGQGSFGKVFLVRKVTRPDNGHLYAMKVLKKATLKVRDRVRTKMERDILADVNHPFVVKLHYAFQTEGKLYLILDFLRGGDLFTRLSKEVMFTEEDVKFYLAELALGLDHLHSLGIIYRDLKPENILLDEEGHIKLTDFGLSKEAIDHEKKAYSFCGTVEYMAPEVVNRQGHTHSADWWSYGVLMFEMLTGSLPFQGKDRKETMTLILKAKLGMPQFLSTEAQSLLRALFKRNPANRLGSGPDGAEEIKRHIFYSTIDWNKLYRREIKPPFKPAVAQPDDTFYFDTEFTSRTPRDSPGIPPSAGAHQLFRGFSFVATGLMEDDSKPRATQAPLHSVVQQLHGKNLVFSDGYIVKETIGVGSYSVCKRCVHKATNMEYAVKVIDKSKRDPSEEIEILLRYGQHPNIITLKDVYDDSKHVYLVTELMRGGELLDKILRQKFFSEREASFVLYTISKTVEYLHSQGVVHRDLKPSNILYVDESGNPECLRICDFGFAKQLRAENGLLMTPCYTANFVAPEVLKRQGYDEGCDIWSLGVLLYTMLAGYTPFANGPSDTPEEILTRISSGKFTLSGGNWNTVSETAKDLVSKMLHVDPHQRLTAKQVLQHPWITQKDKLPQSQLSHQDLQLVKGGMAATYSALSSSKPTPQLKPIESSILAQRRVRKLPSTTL

Q: Which results are given for `O[C@]12C=C(c3nccc4c3[nH]c3ccccc34)[C@@H]3CCN(CCCC/C=C\CC1)C[C@@]31C[C@@H]3/C=C\CCCCN3[C@H]12` [MZA, Manzamine A]?
A: IC50 [1]: 15 µM; IC50 [2]: 108 µM
